Assay results as given in PMC3567211 (2012).

System: TGGCTT (5'-biotin labeled hairpin DNA) (DNA, hairpin) CCTTGGCTTCTTTTGAAGCCAAGG
Assay: SPR, global kinetic 1:1 fit
Details: 50 mM Na+ (NaCl); 10 mM HEPES, 1 mM EDTA, 0.05% P20, pH 7.4, 25 °C

How did the KA turn out when `CN(C)CCCNC(=O)CCNC(=O)c1cc(NC(=O)c2cc(NC(=O)c3nc(NC(=O)c4cc(NC(=O)CCCNC(=O)c5cc(NC(=O)c6cc(NC(=O)c7nc(NC(=O)c8nccn8C)cn7C)cn6C)cn5C)cn4C)cn3C)cn2C)cn1C` was run?
Its KA is 37 ± 7 × 10^8 M^-1.
